Data taken from ChEMBL document CHEMBL1201862, “PubChem BioAssay data set” (2004).
Calls of active or inactive are those of the source.

Columns and labels:
[1] = molecular target: T1, RNA-binding protein pos-1 (Caenorhabditis elegans, UniProt G5EF15); assay: disruptors of C. elegans POS-1 RNA interaction – biochemical, fluorescence polarization, dose response (AID 1964);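 also: purified POS-1 fused to maltose binding protein made in E. coli; potency of compounds blocking POS-1 binding to fluorescent RNA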
T1 sequence (G5EF15 whole entry): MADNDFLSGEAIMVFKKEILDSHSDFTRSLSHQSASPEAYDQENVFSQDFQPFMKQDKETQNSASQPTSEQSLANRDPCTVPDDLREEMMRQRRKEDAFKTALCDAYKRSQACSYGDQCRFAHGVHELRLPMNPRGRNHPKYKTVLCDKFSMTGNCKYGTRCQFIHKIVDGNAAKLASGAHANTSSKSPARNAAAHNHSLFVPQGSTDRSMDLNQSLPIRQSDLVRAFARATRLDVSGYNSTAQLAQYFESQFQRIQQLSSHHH

[2] = molecular target: T2, Zinc finger protein mex-5 (Caenorhabditis elegans, UniProt Q9XUB2); assay: potency of MEX-5 RNA-binding blockers – biochemical, C. elegans, fluorescence polarization, dose response (AID 1960)
T2 sequence (Q9XUB2 whole entry): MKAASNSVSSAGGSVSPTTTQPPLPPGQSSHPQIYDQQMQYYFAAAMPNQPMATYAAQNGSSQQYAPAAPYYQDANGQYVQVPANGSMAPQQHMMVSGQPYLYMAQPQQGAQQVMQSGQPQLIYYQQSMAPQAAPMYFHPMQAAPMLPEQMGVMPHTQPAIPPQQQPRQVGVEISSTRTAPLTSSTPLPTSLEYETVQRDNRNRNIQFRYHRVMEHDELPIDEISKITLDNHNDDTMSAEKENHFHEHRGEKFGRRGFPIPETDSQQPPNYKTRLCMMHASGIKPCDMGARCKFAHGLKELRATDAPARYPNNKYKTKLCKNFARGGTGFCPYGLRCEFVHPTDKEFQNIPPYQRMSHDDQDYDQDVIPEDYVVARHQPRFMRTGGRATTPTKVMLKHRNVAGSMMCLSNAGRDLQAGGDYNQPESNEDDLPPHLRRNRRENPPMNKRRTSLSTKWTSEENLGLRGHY

[3] = molecular target: T3, Short transient receptor potential channel 4 (Mus musculus, UniProt Q9QUQ5); assay: block of DAMGO-driven TRPC4 calcium entry – cell-based, HEK293 TRPC4/mu-opioid, Fluo-4 calcium, dose response (AID 434942); format: functional;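 also: potency of inhibitors blocking the TRPC4 calcium response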
T3 sequence (Q9QUQ5 whole entry): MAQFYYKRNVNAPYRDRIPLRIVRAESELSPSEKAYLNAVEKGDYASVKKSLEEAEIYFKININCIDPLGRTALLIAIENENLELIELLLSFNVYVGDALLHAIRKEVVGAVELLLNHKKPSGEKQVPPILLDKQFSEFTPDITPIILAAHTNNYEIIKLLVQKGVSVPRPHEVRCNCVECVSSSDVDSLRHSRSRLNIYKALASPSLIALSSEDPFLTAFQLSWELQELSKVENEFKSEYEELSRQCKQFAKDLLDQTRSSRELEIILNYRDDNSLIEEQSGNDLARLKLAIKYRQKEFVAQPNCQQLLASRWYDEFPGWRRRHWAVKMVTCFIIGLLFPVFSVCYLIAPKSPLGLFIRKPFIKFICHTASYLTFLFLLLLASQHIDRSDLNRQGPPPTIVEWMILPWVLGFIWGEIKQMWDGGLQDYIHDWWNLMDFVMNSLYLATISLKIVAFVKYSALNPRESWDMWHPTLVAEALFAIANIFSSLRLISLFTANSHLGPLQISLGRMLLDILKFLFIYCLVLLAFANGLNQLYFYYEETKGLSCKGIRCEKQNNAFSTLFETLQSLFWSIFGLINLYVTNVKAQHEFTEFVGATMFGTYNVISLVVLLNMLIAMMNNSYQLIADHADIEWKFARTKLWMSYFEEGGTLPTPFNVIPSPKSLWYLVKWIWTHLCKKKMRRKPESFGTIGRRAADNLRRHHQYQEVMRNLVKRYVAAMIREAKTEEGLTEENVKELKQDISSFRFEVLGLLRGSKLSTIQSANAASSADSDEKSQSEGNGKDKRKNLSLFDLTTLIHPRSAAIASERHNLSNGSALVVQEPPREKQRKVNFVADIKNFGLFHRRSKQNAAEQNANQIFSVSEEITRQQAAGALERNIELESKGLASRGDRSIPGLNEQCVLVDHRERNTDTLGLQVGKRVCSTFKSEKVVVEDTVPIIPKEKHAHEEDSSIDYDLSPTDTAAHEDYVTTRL

Cytochrome P450 3A4 = Cytochrome P450 3A4 (Homo sapiens, UniProt P08684); settings: Potency;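 also: confirmatory qHTS run detecting inhibitors and substrates of CYP3A4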
Sequence of Cytochrome P450 3A4 (P08684 whole entry): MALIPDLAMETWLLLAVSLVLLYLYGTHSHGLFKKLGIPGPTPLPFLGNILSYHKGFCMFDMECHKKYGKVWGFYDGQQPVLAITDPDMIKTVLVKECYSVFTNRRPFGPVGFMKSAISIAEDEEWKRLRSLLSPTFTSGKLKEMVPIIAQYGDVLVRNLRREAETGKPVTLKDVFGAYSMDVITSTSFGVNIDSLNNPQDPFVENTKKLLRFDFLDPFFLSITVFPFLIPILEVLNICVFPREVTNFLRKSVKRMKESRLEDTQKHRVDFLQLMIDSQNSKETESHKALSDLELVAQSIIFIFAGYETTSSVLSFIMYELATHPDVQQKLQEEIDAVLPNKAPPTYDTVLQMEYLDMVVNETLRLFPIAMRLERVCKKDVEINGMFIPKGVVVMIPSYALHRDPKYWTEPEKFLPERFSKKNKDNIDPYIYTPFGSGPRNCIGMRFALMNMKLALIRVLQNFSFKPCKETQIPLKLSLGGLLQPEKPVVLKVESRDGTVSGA

[4] = molecular target: Glyceraldehyde-3-phosphate dehydrogenase (Homo sapiens, UniProt P04406)
Sequence of Glyceraldehyde-3-phosphate dehydrogenase (P04406 whole entry): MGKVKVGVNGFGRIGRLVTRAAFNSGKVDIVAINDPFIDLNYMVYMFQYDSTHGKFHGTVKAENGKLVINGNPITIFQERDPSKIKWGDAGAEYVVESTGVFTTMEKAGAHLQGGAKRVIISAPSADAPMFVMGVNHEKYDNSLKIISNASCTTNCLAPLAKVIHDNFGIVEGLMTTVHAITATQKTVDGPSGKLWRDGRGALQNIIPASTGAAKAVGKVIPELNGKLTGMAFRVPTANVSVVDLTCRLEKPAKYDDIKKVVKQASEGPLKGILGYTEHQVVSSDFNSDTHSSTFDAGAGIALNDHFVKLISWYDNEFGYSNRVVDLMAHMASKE

Vero = assay: viability of Vero cells under compound – cytotoxicity control for flavivirus capping enzyme inhibitors (AID 588742); format: functional; settings: Chlorocebus sabaeus
Genome polyprotein = Genome polyprotein (dengue virus type 2, UniProt P29990); assay: flavivirus cap methylation enzyme inhibition – biochemical, confirmation dose response, primary screen (AID 588689); format: functional
Sequence of Genome polyprotein (P29990 2492-3391 limits assumed): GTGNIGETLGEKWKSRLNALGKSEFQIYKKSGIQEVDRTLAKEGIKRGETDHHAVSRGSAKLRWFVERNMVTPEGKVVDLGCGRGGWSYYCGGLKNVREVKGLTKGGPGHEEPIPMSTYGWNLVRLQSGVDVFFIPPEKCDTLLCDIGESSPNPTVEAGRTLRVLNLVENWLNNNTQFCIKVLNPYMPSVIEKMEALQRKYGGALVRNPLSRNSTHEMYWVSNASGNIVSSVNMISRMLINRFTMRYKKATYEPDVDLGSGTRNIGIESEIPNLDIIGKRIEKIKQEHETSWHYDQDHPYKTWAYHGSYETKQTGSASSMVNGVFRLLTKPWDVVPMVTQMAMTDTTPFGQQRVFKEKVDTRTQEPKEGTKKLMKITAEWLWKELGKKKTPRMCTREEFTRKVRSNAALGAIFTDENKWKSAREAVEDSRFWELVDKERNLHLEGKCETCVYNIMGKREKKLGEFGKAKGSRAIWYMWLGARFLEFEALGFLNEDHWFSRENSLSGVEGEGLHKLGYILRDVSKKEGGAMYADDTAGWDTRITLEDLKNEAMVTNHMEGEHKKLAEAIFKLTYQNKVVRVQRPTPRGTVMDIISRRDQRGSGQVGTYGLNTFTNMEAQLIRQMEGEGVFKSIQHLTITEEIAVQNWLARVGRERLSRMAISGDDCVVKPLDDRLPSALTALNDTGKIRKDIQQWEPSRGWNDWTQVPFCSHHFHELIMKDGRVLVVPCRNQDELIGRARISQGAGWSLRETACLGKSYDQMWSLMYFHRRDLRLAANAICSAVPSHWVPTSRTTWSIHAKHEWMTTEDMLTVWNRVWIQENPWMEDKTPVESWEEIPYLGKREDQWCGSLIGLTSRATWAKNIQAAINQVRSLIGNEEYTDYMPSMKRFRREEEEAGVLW

[5] = molecular target: T4, Polyadenylate-binding protein 1 (Homo sapiens, UniProt P11940); assay: MLLE binding blockers, Cy5 peptide tracer – biochemical, fluorescence polarization, Cy5-PAM2 peptide, secondary, miRNA deadenylation inhibitor project, dose response (AID 602260); format: functional; settings: read-out: IC50_Mean
T4 sequence (P11940 whole entry, the tested form may be a part): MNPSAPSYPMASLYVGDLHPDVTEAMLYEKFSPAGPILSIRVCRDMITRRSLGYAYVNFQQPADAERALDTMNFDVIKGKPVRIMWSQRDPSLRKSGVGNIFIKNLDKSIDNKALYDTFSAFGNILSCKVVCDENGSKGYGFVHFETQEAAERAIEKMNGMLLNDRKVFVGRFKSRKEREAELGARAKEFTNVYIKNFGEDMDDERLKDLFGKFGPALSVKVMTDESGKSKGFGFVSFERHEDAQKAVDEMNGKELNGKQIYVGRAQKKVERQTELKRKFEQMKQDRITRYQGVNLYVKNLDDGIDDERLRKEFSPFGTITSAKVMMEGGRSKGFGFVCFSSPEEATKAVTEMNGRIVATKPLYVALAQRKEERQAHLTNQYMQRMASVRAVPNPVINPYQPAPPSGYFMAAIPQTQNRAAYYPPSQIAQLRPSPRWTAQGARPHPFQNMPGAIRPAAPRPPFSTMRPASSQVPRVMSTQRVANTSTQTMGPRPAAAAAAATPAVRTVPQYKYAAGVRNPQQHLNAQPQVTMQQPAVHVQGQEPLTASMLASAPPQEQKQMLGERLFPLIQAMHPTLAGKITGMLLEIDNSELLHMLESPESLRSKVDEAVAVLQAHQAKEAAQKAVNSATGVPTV

[6] = molecular target: T4, Polyadenylate-binding protein 1; assay: MLLE domain peptide-binding blockers, IC50 – biochemical, fluorescence polarization, FITC-PAM2 peptide, dose response (AID 602259); format: functional; settings: read-out: IC50_Mean
[7] = blockers of HIV-1 envelope-mediated cell-cell fusion – cherry-pick, dose response (AID 652057); format: functional, cell-based
[8] = HIV-1 AD8 envelope cell-cell fusion blockers – cherry-pick, dose response (AID 652062); format: functional, cell-based;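 also: luciferase signal from cell-cell fusion driven by HIV-1 clade B AD8 Env; potency is for inhibitors of fusion seen as a drop in luminescence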
Paired box protein Pax-8 = Paired box protein Pax-8 (Homo sapiens, UniProt Q06710); assay: PAX8 transcriptional activity inhibition in RMG-I – RMG-I cells, luciferase, cherry-pick, dose response (AID 687027); format: functional, cell-based;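 also: luciferase reporter driven by Pax8 target thyroperoxidase promoter measured by SteadyGlo luminescence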
Sequence of Paired box protein Pax-8 (Q06710 whole entry): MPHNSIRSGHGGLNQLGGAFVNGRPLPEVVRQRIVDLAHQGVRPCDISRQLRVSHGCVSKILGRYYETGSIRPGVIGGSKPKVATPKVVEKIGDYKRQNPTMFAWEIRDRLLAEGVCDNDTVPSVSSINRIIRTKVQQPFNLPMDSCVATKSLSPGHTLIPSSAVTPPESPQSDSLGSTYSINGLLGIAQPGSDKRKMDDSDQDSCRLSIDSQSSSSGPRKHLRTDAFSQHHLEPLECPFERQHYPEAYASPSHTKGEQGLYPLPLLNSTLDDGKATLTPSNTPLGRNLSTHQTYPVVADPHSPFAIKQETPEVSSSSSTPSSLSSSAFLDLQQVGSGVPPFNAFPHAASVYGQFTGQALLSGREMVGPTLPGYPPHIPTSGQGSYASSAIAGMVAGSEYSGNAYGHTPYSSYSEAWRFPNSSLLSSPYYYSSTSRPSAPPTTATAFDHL

[9] = Trypanosoma cruzi growth suppression in host cells – NIH3T3 host cells, beta-gal luminescence, confirmation (AID 2044); format: functional, cell-based;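 also: intracellular parasites grown in NIH/3T3 mouse fibroblasts as host cells; luminescent beta-galactosidase reporter signal from transgenic T. cruzi replicating inside host cells; inhibitors lower the luminescence signal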
[10] = NIH3T3 cell viability loss – ATP luminescence, mouse fibroblasts, counter-screen, dose response (AID 2010); format: functional, cell-based;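 also: cells exposed to compound for about 90 hours before reading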
HEK293 = assay: EBV LMP1 TES2 canonical NF-kB signalling blockers – cell-based, HEK293, luciferase, cherry-pick, dose response (AID 588343); format: functional; settings: Homo sapiens

For Cc1cc(C)c(N2C(=O)NC(=O)/C(=C\NNC(=O)c3ccncc3)C2=O)c(C)c1, the EC50 [1] was 64.7 µM (active) and the EC50 [2] was 36.6 µM (active).

For COc1ccc(CN2CCCC(C(=O)c3sccc3C)C2)cc1O (stereo not given), the EC50 [3] was 11.9 µM (active).

For CC1(C)C[C@@H]2C(=O)CCC3O[C@@]3(C)CCC21 (stereo not given in full), the AC50 (Cytochrome P450 3A4) was 12.6 µM (inconclusive).

With O=C(NNS(=O)(=O)c1ccc([N+](=O)[O-])cc1)C(=O)Nc1cccc(C(=O)O)c1 the EC50 [1] was 9.52 µM (inconclusive) and the EC50 [2] was 12.3 µM (inconclusive).

For NC1=NC(=O)/C(=C/c2ccc(-c3cc([N+](=O)[O-])ccc3Cl)o2)S1, the IC50 [4] was > 100 µM (not active).

For Nc1c2c(nc3ccccc13)CCC2, the EC50 [3] was 4.22 µM (active).

In the case of CCCn1c(-c2ccc(F)cc2)nc2c(NCCN(CC)CC)nc(C)nc21, the AC50 (Cytochrome P450 3A4) is reported as 15.8 µM (inconclusive).

For O=C1C(O)=CC(=C(c2ccccc2)c2ccccc2)c2ccccc21, the CC50 (Vero) was > 40 µM (active) and the IC50 (Genome polyprotein) was > 100 µM (active).

For CC1=CC(=O)C(Sc2ccc(C)cc2)=CC1=O, the IC50 (Genome polyprotein) was 14.5 µM (active), the IC50 [5] was > 66 µM (inactive) and the IC50 [6] was > 66 µM (inactive).

In the case of C[C@H](CO)N1C[C@H](C)[C@H](CN(C)S(=O)(=O)c2ccccc2)Oc2ccc(NC(=O)Cc3ccccc3)cc2CC1=O, the AC50 [7] is reported as < 0.26 µM (active) and the AC50 [8] is reported as < 0.26 µM (active).

With COc1ccc(S(=O)(=O)Nc2ccc3c(c2)C(=O)N([C@H](C)CO)C[C@H](C)[C@H](CN(C)S(=O)(=O)c2ccc(F)cc2)OCCCC[C@H](C)O3)cc1 the AC50 (Paired box protein Pax-8) was 4.78 µM (active).

For C/C(=N\c1ccc(Br)cc1)c1sc2ccccc2c1O, the EC50 [1] was > 300 µM (not active), the EC50 [2] was > 300 µM (inconclusive) and the EC50 [9] was 4.08 µM (active). For the same compound, the EC50 [10] was > 60 µM (not active).

In the case of Cc1cccc(/C=N/NC(=O)CNc2cccc3ccccc23)n1, the AC50 (HEK293) is reported as 107 µM (active).

In the case of COC1=CC(=O)C(C(=O)c2ccccc2)=CC1=O [2-BENZOYL-5-METHOXYBENZOQUINONE], the AC50 (Cytochrome P450 3A4) is reported as 10 µM (inconclusive).

In the case of COc1cc(O)cc(OC)c1OC [ANTIAROL], the AC50 (Cytochrome P450 3A4) is reported as 31.6 µM (inconclusive).

In the case of O=C(CC(=O)c1ccccc1)c1ccccc1 [DIBENZOYLMETHANE], the AC50 (Cytochrome P450 3A4) is reported as 12.6 µM (inconclusive).
